Source: patent US20260133182A1, “METHOD OF DETERMINING FUSOGENIC POTENTIAL OF SPERM AND USE THEREOF IN ASSISTED FERTILIZATION AND DRUG SCREENING” (Technion Research & Development Foundation Limited, priority 2023, published 2026)

Test system: BHK cells expressing JUNO co-incubated with capacitated mouse sperm
Assay: Sperm-to-BHK fusion and multinucleation
Format: cell-based, hamster
Details: JUNO-transfected BHK cells + mouse sperm
Protocol: In this study, the present inventors used BHK cells (Cat #CCL-10; ATCC, RRID: CVCL_1915) which were grown and maintained in DMEM containing 10% FBS. Cells were cultured at 37° C. in 5% CO2. Plasmids were transfected into cells using 2 μl jetPRIME (PolyPlus-transfection) per μg of DNA in 100 μl of reaction buffer for every ml of medium.
Sperm were recovered by incising the cauda epididymis, obtained from adult male mice, in 300 μl of mHTF medium (Kito et al. 2004) supplemented with 4 mg/ml of BSA. The sperm were diluted in fresh medium to a concentration of 5×10^6 cells/ml and incubated for 90 min at 37° C. and 5% CO2 to induce capacitation.
BHK cells were grown on 24-well glass bottom tissue-culture plates. 24 h after plating, cells were transfected with 0.25 μg pcDNA 3.1 -EGFP-MBD-nls plasmids and 0.5 μg of either pCI::H2B-RFP or pCI::JUNO::H2B-RFP. […] Multinucleation percentage was determined as the ratio between the number of nuclei in multinucleated cells (NuM) and the total number of nuclei fluorescent cells (NuF), as follows: % of multinucleation=(NuM/NuF)×100. 500 nuclei (NuF) were counted in each independent repetition (experimental point). In some cases, the number of sperm fused was determined by evaluating the transfer of EGFP-MBD-nls signal from the BHK cell to the sperm nuclei (number of fused sperm/500 BHK cells). […]

O=c1[nH]c(=O)n([C@H]2C[C@H](O)[C@@H](CO)O2)cc1F [FdUdr, 5-fluoro-2′-deoxyuridine]
multinucleation (% of multinucleation) (20 μM FdUdr): does not inhibit

C[C@@H]1C[C@@H]([C@H](O)CC2CC(=O)NC(=O)C2)C(=O)[C@@H](C)C1 [cycloheximide]
levels of multinucleation (% of multinucleation) (4 h, 200 μg/ml cycloheximide vs control): no differences
